Like-named read-outs stand apart in the source and are kept apart here.
Legend:
ERK2 = ERK2 (Homo sapiens, UniProt P28482); test: binding to immobilized V16742 (IVA1/IVA2, HeLa lysate, MS); conditions: for Percent bound at 1.87 μM 16742 conc / Percent bound at 8.74 μM 16742 conc / Percent bound at 52 μM 16742 conc / Kd: Erk2
PITSLRE = test: as above; design: species or system human
JAK1 = JAK1 (Homo sapiens, UniProt P23458); test: as above
p38a = molecular target: T1, p38a (Homo sapiens, UniProt Q16539); test: as above; conditions: p38a (IPI00221141.2)
T1 construct: endogenous in cells; host or cells: HeLa S3

RIPK2 = RIPK2 (Homo sapiens, UniProt O43353); test: as above
[1] = molecular target: T2, Isoform 1 of Nicotinamide phosphoribosyltransferase (Homo sapiens, UniProt P43490); test: as above
T2 construct: endogenous in cells; host or cells: HeLa S3

BRD4 = BRD4 (Homo sapiens, UniProt O60885); test: as above
JNK2 = JNK2 (Homo sapiens, UniProt P45984); test: as above
TLK1 = molecular target: T3, TLK1 (Homo sapiens, UniProt Q9UKI8); test: as above
T3 construct: endogenous in cells; host or cells: HeLa S3
T3 sequence (Q9UKI8 1-766): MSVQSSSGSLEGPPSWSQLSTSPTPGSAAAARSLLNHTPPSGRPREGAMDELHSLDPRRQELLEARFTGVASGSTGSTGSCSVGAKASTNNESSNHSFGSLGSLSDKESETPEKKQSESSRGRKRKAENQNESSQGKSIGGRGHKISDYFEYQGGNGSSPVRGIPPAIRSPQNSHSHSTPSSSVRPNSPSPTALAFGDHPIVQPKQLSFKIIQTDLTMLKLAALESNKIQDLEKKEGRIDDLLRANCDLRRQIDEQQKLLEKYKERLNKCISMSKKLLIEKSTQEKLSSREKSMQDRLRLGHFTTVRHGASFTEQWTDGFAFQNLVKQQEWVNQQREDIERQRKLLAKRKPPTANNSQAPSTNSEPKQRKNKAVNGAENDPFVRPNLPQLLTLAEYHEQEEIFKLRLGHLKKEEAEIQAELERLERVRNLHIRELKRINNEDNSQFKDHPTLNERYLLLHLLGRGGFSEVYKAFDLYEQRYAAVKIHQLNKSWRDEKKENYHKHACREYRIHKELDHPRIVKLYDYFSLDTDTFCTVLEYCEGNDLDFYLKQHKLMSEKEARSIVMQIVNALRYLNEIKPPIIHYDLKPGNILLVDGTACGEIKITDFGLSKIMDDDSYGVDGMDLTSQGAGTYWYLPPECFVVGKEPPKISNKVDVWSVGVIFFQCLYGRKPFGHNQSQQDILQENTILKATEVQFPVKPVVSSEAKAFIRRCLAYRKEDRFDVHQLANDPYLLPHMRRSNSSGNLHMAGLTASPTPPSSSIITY

YES = YES (Homo sapiens, UniProt P07947); test: as above
GSK3B = GSK3B (Homo sapiens, UniProt P49841); test: as above
NUDT12 = NUDT12 (Homo sapiens, UniProt Q9BQG2)
CaMK2g (CAMK2G) = CaMK2g (CAMK2G) (Homo sapiens, UniProt Q13555)
[2] = average of two experiments, read-out: Kd Avg
[3] = immobilized V16742, read-out: Kd

Chain of JNK2 (P45984 whole entry): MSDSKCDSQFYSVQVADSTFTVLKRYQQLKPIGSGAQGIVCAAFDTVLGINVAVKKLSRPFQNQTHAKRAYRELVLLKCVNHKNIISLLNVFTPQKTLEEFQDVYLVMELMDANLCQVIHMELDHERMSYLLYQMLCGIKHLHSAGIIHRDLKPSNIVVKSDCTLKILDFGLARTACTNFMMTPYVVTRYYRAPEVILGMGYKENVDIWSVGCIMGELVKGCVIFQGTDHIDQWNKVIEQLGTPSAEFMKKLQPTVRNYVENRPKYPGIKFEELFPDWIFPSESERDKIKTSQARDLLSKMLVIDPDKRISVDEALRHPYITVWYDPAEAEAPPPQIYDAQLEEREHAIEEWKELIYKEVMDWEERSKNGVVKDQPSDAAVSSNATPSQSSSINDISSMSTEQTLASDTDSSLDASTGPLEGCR
Chain of JAK1 (P23458 whole entry): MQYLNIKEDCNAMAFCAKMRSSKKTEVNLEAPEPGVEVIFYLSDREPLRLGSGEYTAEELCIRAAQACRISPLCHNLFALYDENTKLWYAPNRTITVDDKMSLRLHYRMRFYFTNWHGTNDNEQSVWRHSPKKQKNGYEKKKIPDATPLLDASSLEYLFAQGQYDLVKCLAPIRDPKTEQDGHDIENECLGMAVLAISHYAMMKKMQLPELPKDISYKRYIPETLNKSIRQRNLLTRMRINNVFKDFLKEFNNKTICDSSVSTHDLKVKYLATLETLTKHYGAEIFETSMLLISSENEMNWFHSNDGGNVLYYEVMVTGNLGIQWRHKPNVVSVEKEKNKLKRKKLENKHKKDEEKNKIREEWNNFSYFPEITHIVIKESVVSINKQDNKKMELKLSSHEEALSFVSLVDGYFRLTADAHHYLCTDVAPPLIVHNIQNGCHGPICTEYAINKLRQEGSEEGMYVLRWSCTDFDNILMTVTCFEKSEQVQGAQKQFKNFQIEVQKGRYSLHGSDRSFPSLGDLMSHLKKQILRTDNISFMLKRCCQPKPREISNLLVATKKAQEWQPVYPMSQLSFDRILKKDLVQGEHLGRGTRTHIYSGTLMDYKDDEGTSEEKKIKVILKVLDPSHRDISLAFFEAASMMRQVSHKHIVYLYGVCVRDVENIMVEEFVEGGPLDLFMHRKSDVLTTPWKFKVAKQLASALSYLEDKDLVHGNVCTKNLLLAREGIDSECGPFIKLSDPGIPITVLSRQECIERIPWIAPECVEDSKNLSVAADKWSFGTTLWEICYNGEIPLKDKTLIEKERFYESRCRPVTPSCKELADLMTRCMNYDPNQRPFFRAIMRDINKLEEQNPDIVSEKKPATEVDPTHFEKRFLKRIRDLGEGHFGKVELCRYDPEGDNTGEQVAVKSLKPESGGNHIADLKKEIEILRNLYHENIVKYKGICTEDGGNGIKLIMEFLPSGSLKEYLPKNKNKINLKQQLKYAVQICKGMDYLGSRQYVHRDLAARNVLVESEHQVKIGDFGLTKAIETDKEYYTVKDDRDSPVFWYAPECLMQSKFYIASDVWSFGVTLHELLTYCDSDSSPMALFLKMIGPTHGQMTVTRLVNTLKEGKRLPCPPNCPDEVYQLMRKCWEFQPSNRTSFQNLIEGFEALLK
Chain of GSK3B (P49841 whole entry): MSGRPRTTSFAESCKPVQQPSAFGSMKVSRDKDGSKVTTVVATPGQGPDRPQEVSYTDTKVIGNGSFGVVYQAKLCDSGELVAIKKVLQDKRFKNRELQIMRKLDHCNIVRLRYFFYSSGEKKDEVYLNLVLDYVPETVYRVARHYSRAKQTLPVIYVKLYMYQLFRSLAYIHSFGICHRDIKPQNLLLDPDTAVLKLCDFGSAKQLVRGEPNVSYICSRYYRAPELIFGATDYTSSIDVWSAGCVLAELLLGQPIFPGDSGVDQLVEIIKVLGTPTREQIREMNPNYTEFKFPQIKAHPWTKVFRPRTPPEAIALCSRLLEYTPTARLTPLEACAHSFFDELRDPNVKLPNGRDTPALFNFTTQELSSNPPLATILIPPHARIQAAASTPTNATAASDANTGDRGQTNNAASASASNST
Chain of RIPK2 (O43353 whole entry, canonical isoform): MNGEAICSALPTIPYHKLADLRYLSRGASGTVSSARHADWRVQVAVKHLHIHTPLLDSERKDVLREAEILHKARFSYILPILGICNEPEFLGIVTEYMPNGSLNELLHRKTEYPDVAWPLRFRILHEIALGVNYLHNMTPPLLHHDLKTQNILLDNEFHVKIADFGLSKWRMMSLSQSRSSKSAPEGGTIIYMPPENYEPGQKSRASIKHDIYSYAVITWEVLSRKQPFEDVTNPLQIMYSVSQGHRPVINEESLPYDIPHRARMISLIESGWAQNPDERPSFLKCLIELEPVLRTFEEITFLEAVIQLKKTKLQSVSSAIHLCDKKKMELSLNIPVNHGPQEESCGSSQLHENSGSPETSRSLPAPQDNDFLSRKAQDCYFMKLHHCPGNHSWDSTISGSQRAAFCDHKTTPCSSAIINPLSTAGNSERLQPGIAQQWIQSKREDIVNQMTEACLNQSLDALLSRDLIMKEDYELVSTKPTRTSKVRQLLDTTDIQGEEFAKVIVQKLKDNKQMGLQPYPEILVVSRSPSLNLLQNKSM
Chain of ERK2 (P28482 whole entry): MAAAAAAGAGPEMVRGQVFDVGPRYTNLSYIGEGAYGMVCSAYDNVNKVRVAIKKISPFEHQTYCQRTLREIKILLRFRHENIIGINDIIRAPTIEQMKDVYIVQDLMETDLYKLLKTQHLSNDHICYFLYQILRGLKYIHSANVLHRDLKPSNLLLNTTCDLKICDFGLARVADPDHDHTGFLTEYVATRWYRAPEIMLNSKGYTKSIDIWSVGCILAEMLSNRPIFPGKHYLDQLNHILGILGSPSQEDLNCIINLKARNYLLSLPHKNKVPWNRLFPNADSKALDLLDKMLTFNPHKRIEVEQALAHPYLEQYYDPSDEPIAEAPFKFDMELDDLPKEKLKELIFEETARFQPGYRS
Chain of YES (P07947 whole entry): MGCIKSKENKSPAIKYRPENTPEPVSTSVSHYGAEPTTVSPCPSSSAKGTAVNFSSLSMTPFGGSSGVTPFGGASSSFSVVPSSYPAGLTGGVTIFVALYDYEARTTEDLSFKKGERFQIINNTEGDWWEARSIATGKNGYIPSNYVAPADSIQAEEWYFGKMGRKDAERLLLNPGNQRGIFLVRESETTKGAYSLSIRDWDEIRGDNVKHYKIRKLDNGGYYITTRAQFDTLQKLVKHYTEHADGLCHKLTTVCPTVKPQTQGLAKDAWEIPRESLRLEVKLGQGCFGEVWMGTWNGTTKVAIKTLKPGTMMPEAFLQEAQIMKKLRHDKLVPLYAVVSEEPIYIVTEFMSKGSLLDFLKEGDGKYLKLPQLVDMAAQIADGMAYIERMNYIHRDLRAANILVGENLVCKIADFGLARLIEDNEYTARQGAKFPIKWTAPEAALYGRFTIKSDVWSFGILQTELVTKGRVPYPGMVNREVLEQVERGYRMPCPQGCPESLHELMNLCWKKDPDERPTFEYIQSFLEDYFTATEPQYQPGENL
T2 sequence (P43490 whole entry, canonical isoform): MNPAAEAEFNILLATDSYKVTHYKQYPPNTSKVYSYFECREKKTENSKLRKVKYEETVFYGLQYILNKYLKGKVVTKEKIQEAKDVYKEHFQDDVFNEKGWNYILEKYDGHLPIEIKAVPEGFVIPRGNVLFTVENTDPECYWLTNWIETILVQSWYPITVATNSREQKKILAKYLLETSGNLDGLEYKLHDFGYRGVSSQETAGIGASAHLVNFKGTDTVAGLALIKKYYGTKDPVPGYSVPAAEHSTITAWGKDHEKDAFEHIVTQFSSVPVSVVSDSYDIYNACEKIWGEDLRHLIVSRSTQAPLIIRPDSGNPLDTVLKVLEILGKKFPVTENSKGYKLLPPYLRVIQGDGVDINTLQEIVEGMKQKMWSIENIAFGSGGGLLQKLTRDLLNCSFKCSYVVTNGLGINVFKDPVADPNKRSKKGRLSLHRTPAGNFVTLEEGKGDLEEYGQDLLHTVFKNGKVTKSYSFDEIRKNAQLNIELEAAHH
Chain of NUDT12 (Q9BQG2 whole entry): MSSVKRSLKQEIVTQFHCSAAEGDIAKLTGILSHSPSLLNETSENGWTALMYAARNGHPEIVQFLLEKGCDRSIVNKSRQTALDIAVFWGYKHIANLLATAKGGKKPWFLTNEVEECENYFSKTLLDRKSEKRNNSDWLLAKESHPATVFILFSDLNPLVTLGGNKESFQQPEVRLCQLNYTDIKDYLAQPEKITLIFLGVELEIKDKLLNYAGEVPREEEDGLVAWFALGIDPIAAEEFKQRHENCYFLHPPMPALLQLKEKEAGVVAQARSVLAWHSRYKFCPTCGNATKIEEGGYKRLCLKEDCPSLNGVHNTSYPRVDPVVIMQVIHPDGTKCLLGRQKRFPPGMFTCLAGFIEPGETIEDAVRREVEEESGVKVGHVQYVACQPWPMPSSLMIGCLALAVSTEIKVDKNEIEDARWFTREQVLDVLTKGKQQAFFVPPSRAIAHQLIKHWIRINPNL
Chain of CaMK2g (CAMK2G) (Q13555 whole entry): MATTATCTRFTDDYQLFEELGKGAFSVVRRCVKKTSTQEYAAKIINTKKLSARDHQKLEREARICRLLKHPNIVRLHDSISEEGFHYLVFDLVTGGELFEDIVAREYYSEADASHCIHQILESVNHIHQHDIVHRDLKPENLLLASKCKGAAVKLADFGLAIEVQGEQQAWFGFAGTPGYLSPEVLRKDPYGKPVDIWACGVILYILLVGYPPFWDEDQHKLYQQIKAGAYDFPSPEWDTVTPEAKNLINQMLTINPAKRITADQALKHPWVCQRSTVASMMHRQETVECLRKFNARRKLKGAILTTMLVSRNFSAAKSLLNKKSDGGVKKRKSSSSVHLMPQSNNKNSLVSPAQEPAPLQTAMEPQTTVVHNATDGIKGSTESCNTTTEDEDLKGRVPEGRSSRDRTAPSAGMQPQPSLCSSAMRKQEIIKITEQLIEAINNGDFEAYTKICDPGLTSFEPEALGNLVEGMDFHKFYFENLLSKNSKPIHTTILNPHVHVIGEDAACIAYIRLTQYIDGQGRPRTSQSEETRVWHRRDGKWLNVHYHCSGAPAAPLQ

## CC(C)n1c(=O)ccc2cnc(Nc3ccc(OCCN)cc3)nc21 [V16742]
ERK2; ERK2
  affinity class of target for V16742: Low affinity target
PITSLRE; Experiment 1, 1.87 μM 16742
  Percent bound at various 16742 conc: 1.13%
PITSLRE; Experiment 1, 8.74 μM 16742
  Percent bound at various 16742 conc: 12.03%
PITSLRE; Experiment 1, 52 μM 16742
  Percent bound at various 16742 conc: 49.06%
PITSLRE; Experiment 1, read-out: Kd
  Kd: 56.1 µM
PITSLRE; Experiment 2, 1.87 μM 16742
  Percent bound at various 16742 conc: 2.00%
PITSLRE; Experiment 2, 8.74 μM 16742
  Percent bound at various 16742 conc: 4.78%
PITSLRE; Experiment 2, 52 μM 16742
  Percent bound at various 16742 conc: 46.71%
PITSLRE; Experiment 2, read-out: Kd
  Kd: 66.7 µM
PITSLRE; [2]
  Kd: 61.4 µM
JAK1; [3]
  Kd: 11.1 µM
p38a; Experiment 1, 1.87 μM 16742
  Percent bound at various 16742 conc: 4.98%
p38a; Experiment 1, 8.74 μM 16742
  Percent bound at various 16742 conc: 6.72%
p38a; Experiment 1, 52 μM 16742
  Percent bound at various 16742 conc: 49.78%
p38a; Experiment 1, read-out: Kd
  Kd: 58.3 µM
p38a; Experiment 2, 1.87 μM 16742
  Percent bound at various 16742 conc: 3.02%
p38a; Experiment 2, 8.74 μM 16742
  Percent bound at various 16742 conc: 1.43%
p38a; Experiment 2, 52 μM 16742
  Percent bound at various 16742 conc: 24.52%
p38a; Experiment 2, read-out: Kd
  Kd: 167 µM
p38a; [2]
  Kd: 113 µM
RIPK2
  affinity class of target for V16742: Moderate affinity target
[1]; Experiment 1, 1.87 μM 16742
  Percent bound at various 16742 conc: 2.80%
[1]; Experiment 1, 8.74 μM 16742
  Percent bound at various 16742 conc: 2.70%
[1]; Experiment 1, 52 μM 16742
  Percent bound at various 16742 conc: 54.03%
[1]; Experiment 1, read-out: Kd
  Kd: 54.8 µM
[1]; Experiment 2, 1.87 μM 16742
  Percent bound at various 16742 conc: 2.28%
[1]; Experiment 2, 8.74 μM 16742
  Percent bound at various 16742 conc: 3.40%
[1]; Experiment 2, 52 μM 16742
  Percent bound at various 16742 conc: 41.68%
[1]; Experiment 2, read-out: Kd
  Kd: 80.3 µM
[1]; [2]
  Kd: 67.5 µM
BRD4; [3]
  Kd: 32 µM
JNK2
  affinity class of target for V16742: High affinity target
TLK1; Experiment 1, 1.87 μM 16742
  Percent bound at various 16742 conc: 1.34%
TLK1; Experiment 1, 8.74 μM 16742
  Percent bound at various 16742 conc: 2.39%
TLK1; Experiment 1, 52 μM 16742
  Percent bound at various 16742 conc: 49.12%
TLK1; Experiment 1, read-out: Kd
  Kd: 64 µM
TLK1; Experiment 2, 1.87 μM 16742
  Percent bound at various 16742 conc: 0.76%
TLK1; Experiment 2, 8.74 μM 16742
  Percent bound at various 16742 conc: 1.97%
TLK1; Experiment 2, 52 μM 16742
  Percent bound at various 16742 conc: 31.56%
TLK1; Experiment 2, read-out: Kd
  Kd: 121 µM
TLK1; [2]
  Kd: 92.4 µM

## CC(C)n1c(=O)ccc2cnc(Nc3ccc(OCCN)cc3)nc21 [compound 16742]
ERK2; EXPERIMENT 1
  Percent bound at 1.87 μM 16742 conc: 1.41%
  Percent bound at 8.74 μM 16742 conc: 5.40%
  Percent bound at 52 μM 16742 conc: 70.05%
ERK2; EXPERIMENT 1, read-out: Kd
  Kd: 35.1 µM
ERK2; EXPERIMENT 2
  Percent bound at 1.87 μM 16742 conc: 2.43%
  Percent bound at 8.74 μM 16742 conc: 5.90%
  Percent bound at 52 μM 16742 conc: 65.58%
ERK2; EXPERIMENT 2, read-out: Kd
  Kd: 38.5 µM
ERK2; read-out: Kd Avg
  Kd: 36.8 µM
JAK1; EXPERIMENT 1
  Percent bound at 1.87 μM 16742 conc: 16.10%
  Percent bound at 8.74 μM 16742 conc: 75.89%
  Percent bound at 52 μM 16742 conc: 90.34%
JAK1; EXPERIMENT 1, read-out: Kd
  Kd: 4.76 µM
JAK1; EXPERIMENT 2
  Percent bound at 1.87 μM 16742 conc: 8.59%
  Percent bound at 8.74 μM 16742 conc: 30.74%
  Percent bound at 52 μM 16742 conc: 78.69%
JAK1; EXPERIMENT 2, read-out: Kd
  Kd: 17.4 µM
JAK1; read-out: Kd Avg
  Kd: 11.1 µM
YES; EXPERIMENT 1
  Percent bound at 1.87 μM 16742 conc: 4.07%
  Percent bound at 8.74 μM 16742 conc: 25.17%
  Percent bound at 52 μM 16742 conc: 62.69%
YES; EXPERIMENT 1, read-out: Kd
  Kd: 29.3 µM
YES; EXPERIMENT 2
  Percent bound at 1.87 μM 16742 conc: 3.61%
  Percent bound at 8.74 μM 16742 conc: 15.31%
  Percent bound at 52 μM 16742 conc: 54.74%
YES; EXPERIMENT 2, read-out: Kd
  Kd: 44.3 µM
YES; read-out: Kd Avg
  Kd: 36.8 µM
RIPK2; EXPERIMENT 1
  Percent bound at 1.87 μM 16742 conc: 3.74%
  Percent bound at 8.74 μM 16742 conc: 42.39%
  Percent bound at 52 μM 16742 conc: 91.89%
RIPK2; EXPERIMENT 1, read-out: Kd
  Kd: 11.4 µM
RIPK2; EXPERIMENT 2
  Percent bound at 1.87 μM 16742 conc: 5.20%
  Percent bound at 8.74 μM 16742 conc: 38.79%
  Percent bound at 52 μM 16742 conc: 90.30%
RIPK2; EXPERIMENT 2, read-out: Kd
  Kd: 12.4 µM
RIPK2; read-out: Kd Avg
  Kd: 11.9 µM
BRD4; EXPERIMENT 1
  Percent bound at 1.87 μM 16742 conc: 0.33%
  Percent bound at 8.74 μM 16742 conc: 6.55%
  Percent bound at 52 μM 16742 conc: 73.70%
BRD4; EXPERIMENT 2
  Percent bound at 52 μM 16742 conc: 61.49%
BRD4; read-out: Kd Avg
  Kd: 32 µM
GSK3B; EXPERIMENT 1
  Percent bound at 1.87 μM 16742 conc: 12.33%
  Percent bound at 8.74 μM 16742 conc: 51.81%
  Percent bound at 52 μM 16742 conc: 91.30%
GSK3B; EXPERIMENT 1, read-out: Kd
  Kd: 8.44 µM
GSK3B; EXPERIMENT 2
  Percent bound at 1.87 μM 16742 conc: 8.04%
  Percent bound at 8.74 μM 16742 conc: 41.97%
  Percent bound at 52 μM 16742 conc: 88.20%
GSK3B; EXPERIMENT 2, read-out: Kd
  Kd: 11.6 µM
GSK3B; read-out: Kd Avg
  Kd: 10 µM
JNK2; EXPERIMENT 1
  Percent bound at 1.87 μM 16742 conc: 68.10%
  Percent bound at 8.74 μM 16742 conc: 89.45%
  Percent bound at 52 μM 16742 conc: 92.48%
JNK2; EXPERIMENT 1, read-out: Kd
  Kd: 0.91 µM
JNK2; EXPERIMENT 2
  Percent bound at 1.87 μM 16742 conc: 57.18%
  Percent bound at 8.74 μM 16742 conc: 75.70%
  Percent bound at 52 μM 16742 conc: 94.94%
JNK2; EXPERIMENT 2, read-out: Kd
  Kd: 1.69 µM
JNK2; read-out: Kd Avg
  Kd: 1.3 µM

## COc1cc2ncnc(Nc3ccc(F)c(Cl)c3)c2cc1OCCCN1CCOCC1 [gefitinib]
NUDT12
  rAVERAGE (10 nM/0 nM Gef.): 1.04
  rAVERAGE (100 nM/0 nM Gef.): 0.93
  rAVERAGE (1000 nM/0 nM Gef.): 0.92
  rAVERAGE (10000 nM/0 nM Gef.): 0.09
CaMK2g (CAMK2G)
  rAVERAGE (10 nM/0 nM Gef.): 0.95
  rAVERAGE (100 nM/0 nM Gef.): 1.08
  rAVERAGE (1000 nM/0 nM Gef.): 1.01
  rAVERAGE (10000 nM/0 nM Gef.): 0.92
